Measured values taken from patent US9775859B2, “Methods and compositions for preventing and treating a disease related to glycan dysregulation” (Sinai Health System, priority 2005, dated 2017).
Entries after “also recorded” stand apart in the source; their conditions may differ.

Experiments:
Jurkat T-cells [1] = test: L-PHA-FITC staining of Jurkat T cells cultured 3 days with monosaccharides, metabolites, Vitamin D3 or glycosidase inhibitors, FACS; assay type: cell-based, human; settings: for Mgat5 N-glycans / β1,6GlcNAc-branched N-glycans expression (L-PHA staining): Jurkat T-cells, 3 days culture with supplement
Experimental: (§1) Mice used for L-PHA staining and quantitative RT-PCR were sex and age matched. […] 129/Sv mice were from an original Mgat5 gene targeted population (28). All other mice (SJL, NOD, Balb/c and B10.S) were obtained from Jackson Laboratories. […] Mouse and Jurkat cells were stained with L-PHA and LEA by first blocking with PBA (2% bovine serum albumin/0.01% azide/PBS) for 10 min at 4° C. and then incubated with 4 μg/ml of L-PHA-FITC (Vector Laboratories Inc.) or 20 μg/ml of LEA-FITC (Sigma) in PBA for 40 min at 4° C. and analyzed by a BD FACSCalihur (BD Pharmingen, San Diego, Calif.). The level of lectin binding was normalized by untreated control and calculated as a percentage (Sample intensity/control intensity-1) %.
(§2) Mice used for L-PHA staining and quantitative RT-PCR were sex and age matched. […] 129/Sv mice were from the original Mgat5 gene targeted population (28). All other mice (SJL, NOD, Balb/c and B10.S) were obtained from Jackson Laboratories. Mouse cells were stained with anti-CD4 (RM4-5), anti-CD8 (53-6.7), anti-CD45R (RA3-6B2) from eBioscience, and L-PHA (4 μg/ml) and LEA (20 μg/ml) from Sigma. […] Jurkat T-cells were cultured in either glutamine free RPMI 1640, 10% FBS, 10 mM/20 mM glucose or glucose/glutamine free DMEM base media supplemented with 10% FBS, 1.5 mM glucose. The indicated monosaccharides and/or metabolites were added daily except glucose which was added only at time zero.

human PBMCs = test: L-PHA staining of human PBMCs / MS patient T cells; assay type: cell-based
Experimental: Mononuclear cells were isolated from the blood of subjects using Histopaque-1077™ gradients (Sigma, Saint Louis, Mo.) and cultured in RPMI 1640 medium supplemented with 4 mM glutamine, 1 mM sodium pyruvate, 1% non-essential amino acids, 1% RPMI vitamins, 100 units/ml penicillin, 100 μg/ml streptomycin, and 50 μM […]. T lymphocytes were left unstimulated or were activated for 48 hours with 20 ng/ml anti-CD3 antibody (Biomeda, Foster City, Calif.) or a combination of 20 myelin peptides at […] myelin basic protein (MBP). The myelin peptides were immunodominant peptides from human proteolipid protein (PLP 30-49, PLP 40-60, PLP 95-118, PLP 118-150, PLP-180-189, PLP 185-206), human myelin oligodendrocyte glycoprotein (MOG 38-60, MOG 63-87, MOG 76-100, MOG 89-113, MOG 112-132 and MOG 162-188) and cryptic peptides from MBP (MBP 41-69, MBP 61-79, MBP 121-139 and MBP 131-149) and PLP (PLP 73-104, PLP 145-186, PLP 218-248 and PLP 241-272) that are not normally derived from antigen processing but may be made by extracellular proteolytic activity (57). Whole MBP was isolated from frozen guinea pig spinal cords (Harlan Bioproducts, Indianapolis, Ind.). […] The stained cells were analyzed on a FACScan (BD Biosciences, San Jose, Calif.) using the CellQuest software. […] Background fluorescence was subtracted for each population. […]

hepatoma cells = settings: cited from earlier work
T cell = settings: cited from earlier work
EAE = settings: mouse, in vivo; cited from earlier work
Jurkat T-cells [2] = test: LEA-FITC staining (poly-N-acetyllactosamine) of Jurkat T cells, FACS; assay type: cell-based, human; settings: 3 days culture with supplement
Experimental: as §1, §2

Jurkat T-cells [3] = test: MS/MS mass spectroscopy of sugar-nucleotide expression in Jurkat cell lysates; assay type: cell-based, human
Experimental: Jurkat cell pellets (20×10^6) were resuspended in a cold 300 μl methanol:water (1:1) solution containing maltose as internal standard, vortexed for 10 seconds, and then pipetted into tubes containing 600 μl of chloroform:methanol (C:M) (3:2). Samples were vortexed for 1 minute, and then centrifuged at 14,000 rpm for 5 minutes at 4° C. Supernatants were collected, and an equal volume of C:M (1:1) was added, followed by a second extraction. The pooled aqueous fraction containing the hydrophilic metabolites was dried with a speedvac and stored at −80° C. Prior to injection, the samples were dissolved in 100 μl methanol:water (1:1). […] The metabolites were identified by their transitions in MS/MS, and quantified using the Analyte Software (SCIEX), which measured the area under the curve for the fragment ions corresponding to each parent ion. Quantities for the given substrates are graphed as pmole/min/10^6 cells.
JurkaT-cell pellets (20×10^6) were resuspended in cold 300 μl methanol:water (1:1) solution containing maltose as an internal standard, vortexed for 10 seconds, and then pipetted into tubes containing 600 μl of chloroform:methanol (C:M) (3:2). […] The metabolites were identified by their transitions in MS/MS, and quantified using the Analyte Software (SCIEX), which measured the area under the curve for the fragment ions corresponding to each parent ion. […]

[4] = tested on: splenocytes harvested from MBP immunized wild type PL/J mice; test: L-PHA and LEA staining of splenocytes from MBP immunized PL/J mice re-stimulated with MBP; assay type: cell-based, mouse; settings: MBP re-stimulation 4 days, GlcNAc 40 mM
Experimental: (§3) Adoptive transfer EAE was induced by s.c. immunization of wild type PL/J mice housed in the UCI vivarium with 100 μg of bovine MBP (Sigma) emulsified in Complete Freund's Adjuvant containing 4 mg/ml heat-inactivated Mycobacterium tuberculosis (H37 RA; Difco, Detroit, Mich.) distributed over three spots on the hind flank. Splenocytes were harvested after 11 days and stimulated in vitro with 50 μg/ml MBP in the presence or absence of 40 mM N-Acetyl-D-glucosamine (Sigma) added daily. After 96 hours incubation, CD3^+ T cells were purified by negative selection (R&D Systems) and 3.5×10^6T-cells were injected i.p. into naïve PL/J Mgat5^+/− recipient mice. Trypan blue exclusion determined <3% dead cells under both culture conditions. The mice were scored daily for clinical signs over the next 30 days with the observer blinded to treatment conditions.
as §1, with “(28).” for “(28). All other mice (SJL, NOD, Balb/c and B10.S) were obtained from Jackson Laboratories.”, “The level of lectin binding was normalized by untreated control and calculated as a percentage (Sample intensity/control intensity-1) %.” left out

[5] = tested on: splenocytes harvested from MBP immunized wild type PL/J mice; test: Cytokine ELISA of supernatant from MBP re-stimulated splenocyte cultures; assay type: cell-based, mouse; settings: MBP re-stimulation day 4, GlcNAc 40 mM
Experimental: Supernatant from spleenocyte cultures used for adoptive transfer EAE at day 4 of stimulation with MBP in the presence or absence of GlcNAc (40 mM) were tested for INFγ levels. Microtiter plates were coated with 50 μl of anti-IFN-γ (1 μg/ml, clone AN-18; eBiosciences) overnight at 4° C. Supernatants were applied at 50 μl/well in duplicate and incubated for 2 hours at room temperature. Captured cytokines were detected using biotinylated anti-IFN-γ (1 μg/ml, clone R4-6A2; eBiosciences) and detected using Avidin Horse Radish Peroxidase (eBiosciences) at 1:500× dilution and o-Phenylenediamine dihydrochloride OPD tablets (Sigma) according to the manufacturer's protocols. […] Colorimetric change was measured at 450 nm on a microplate autoreader (Labsystems).
Supernatant from splenocyte cultures used for adoptive transfer EAE at day 4 of stimulation with MBP in the presence or absence of GlcNAc (40 mM) were tested for IFN-γ and IL-6 levels. […] Captured cytokines were detected using biotinylated anti-IFN-γ (1 μg/ml, clone R4-6A2; eBiosciences) or anti-IL-6 (1 μg/ml, clone MP5-32C11; eBiosciences) and detected using Avidin Horse Radish Peroxidase (eBiosciences) at 1:500× dilution and o-Phenylenediamine dihydrochloride OPD tablets (Sigma) according to the manufacturer's protocols. […] Colorimetric change was measured at 450 nm on a microplate autoreader (Labsystems).

[6] = tested on: naïve PL/J Mgat5+/− recipient mice; test: Adoptive transfer EAE; assay type: in vivo, mouse; settings: T-cells re-stimulated in vitro with GlcNAc 40 mM, scored 30 days
Experimental: as §3
(§4) Adoptive transfer EAE was induced by s.c. immunization of wild type PL/J mice housed in the UCI vivarium with 100 μg of bovine MBP (Sigma) emulsified in Complete Freund's Adjuvant containing 4 mg/ml heat-inactivated Mycobacterium tuberculosis (H37 RA; Difco, Detroit, Mich.) distributed over three spots on the hind flank. […] Trypan blue exclusion determined […] dead cells under both culture conditions. Mice were scored daily for clinical signs of EAE over the next 30 days with the observer blinded to treatment conditions.

CD3+ T cells = test: Trypan blue exclusion of MBP-stimulated cultures used for adoptive transfer; assay type: cell-based; settings: 96 hours incubation, 40 mM added daily
Experimental: as §3, §4

SMILES	reversal of SW induced downregulation of Mgat5 glycans (Jurkat T-cells [1]; Jurkat T cells with swainsonine)	synergy with anti-CD3 in up-regulating Mgat5 glycan levels (Jurkat T-cells [1]; Jurkat T cells, anti-CD3)	Mgat5 N-glycans / β1,6GlcNAc-branched N-glycans expression (L-PHA staining) (Jurkat T-cells [1])	reversal of attenuated Mgat5 N-glycan expression in MS patients (human PBMCs; MS patient T cells)	Mgat5 modified glycan expression (human PBMCs; human PBMCs)	Mgat5 mRNA expression (hepatoma cells)	INFγ production (T cell)	T cell activation (T cell)	TH1 differentiation (T cell)	EAE (EAE)	poly-N-acetyllactosamine expression (LEA staining) (Jurkat T-cells [2])	intracellular UDP-GlcNAc levels (Jurkat T-cells [3])	Mgat5 N-glycan / β1,6GlcNAc-branched N-glycans expression in re-stimulated splenocytes [4]	poly-N-acetyllactosamine expression in re-stimulated splenocytes [4]	IL-6 secretion [5]	INFγ production [5]	incidence of EAE following adoptive transfer of T-cells [6]	severity of EAE following adoptive transfer of T-cells [6]	dead cells (Trypan blue exclusion) (CD3+ T cells) [%]	dead cells (Trypan blue exclusion) (CD3+ T cells; listed as N-Acetyl-D-glucosamine) [%]
C=C1/C(=C\C=C2/CCC[C@]3(C)[C@@H]([C@H](C)CCCC(C)(C)O)CC[C@@H]23)C[C@@H](O)C[C@@H]1O [Vitamin D3, 1α,25-Dihydroxyvitamin D3]	rescued; also recorded: reversed	synergized	enhanced; also recorded: increases	reversed	enhanced	up-regulates	inhibits	inhibits	inhibits	inhibits	–	–	–	–	–	–	–	–	–	–
CC(=O)N[C@H]1C(O)O[C@H](CO)[C@@H](O)[C@@H]1O (stereo partly drawn) [GlcNAc, N-acetyl-D-glucosamine]	–	–	dose dependently increased	–	–	–	–	–	–	–	dose dependently increased	dramatically raised	doubled; also recorded: increased	doubled; also recorded: increased	promoted	inhibited	dramatically reduced	dramatically reduced	< 5	< 3
